Measured values: patent US8715537B2, “Molecular precursor methods and materials for optoelectronics” (Precursor Energetics, Inc., priority 2009, dated 2014)

Experiments:
[1] = Solubility of molecular precursor in organic solvents; type: physicochemical; details: for Solubility: CHCl3: solvent CHCl3; for Solubility: THF: solvent THF; for Solubility: benzene: solvent benzene; for Solubility: benzene / Solubility: toluene: 'heat'; for Solubility: diethyl ether: solvent diethyl ether; for Solubility: toluene: solvent toluene; for Solubility: pentane: solvent pentane
[2] = Thermogravimetric analysis (TGA): transition of molecular precursor into material; type: physicochemical; details: for TGA transition ending (completed) temperature / TGA transition midpoint: transition of precursor into material; for TGA yield for the transition: residue at end of transition; for TGA yield at 400° C.: at about 400° C.
Protocol: Thermogravimetric analysis (TGA) was performed using a Q50 Thermogravimetric Analyzer (TA Instruments, New Castle, Del.). NMR data were recorded using a Varian 400 MHz spectrometer.

Cu—(S^tBu)3In^nBu [Example 2]
Solubility: CHCl3 [1]: vs
Solubility: THF [1]: vs
Solubility: benzene [1]: vs
Solubility: diethyl ether [1]: vs
Solubility: toluene [1]: vs
TGA transition ending (completed) temperature [2]: 248 °C
TGA transition midpoint [2]: 235 °C
TGA yield for the transition [2]: 50.4 % (w/w)

Ag—(Se^tBu)3Ga^sBu [Example 27]
TGA transition ending (completed) temperature [2]: about 195 °C
TGA yield at 400° C. [2]: 45.1 % (w/w)
TGA yield for the transition [2]: 50.4 % (w/w)

Ag—(Se^tBu)3In^iPr [Example 28]
TGA transition ending (completed) temperature [2]: about 205 °C
TGA yield for the transition [2]: 56.2 % (w/w)

Ag—(Se^tBu)3In^sBu [Example 26]
TGA transition ending (completed) temperature [2]: about 195 °C
TGA yield for the transition [2]: 54.9 % (w/w)

Cu—(Se^tBu)3In^sBu [Example 14]
TGA transition ending (completed) temperature [2]: 204 °C
TGA transition midpoint [2]: 191 °C
TGA yield for the transition [2]: 52.3 % (w/w)

Cu—(Se^tBu)3In^nBu [Example 3]
Solubility: CHCl3 [1]: vs
Solubility: THF [1]: vs
Solubility: benzene [1]: vs
Solubility: diethyl ether [1]: vs
Solubility: toluene [1]: vs
TGA transition ending (completed) temperature [2]: 196 °C
TGA transition midpoint [2]: 174 °C
TGA yield for the transition [2]: 48.5 % (w/w)

Cu—(S^tBu)2(S^tBu)In^tBu [Example 9]
TGA transition ending (completed) temperature [2]: 295 °C
TGA transition midpoint [2]: 235 °C
TGA yield for the transition [2]: 47.9 % (w/w)

Cu—(Se^tBu)3Ga^tBu [Example 5]
Solubility: benzene [1]: ss heat
Solubility: diethyl ether [1]: nil
Solubility: pentane [1]: nil
Solubility: toluene [1]: s heat
TGA transition ending (completed) temperature [2]: about 210 °C
TGA yield for the transition [2]: 48.3 % (w/w)

Cu—(S^tBu)3In^iPr [Example 1]
Solubility: benzene [1]: s heat
Solubility: diethyl ether [1]: ss
Solubility: pentane [1]: nil
TGA transition ending (completed) temperature [2]: 227 °C
TGA transition midpoint [2]: 220 °C
TGA yield for the transition [2]: 50.4 % (w/w)

Cu—(Se^tBu)3In^iPr [Example 8]
Solubility: benzene [1]: heat
Solubility: diethyl ether [1]: ss
Solubility: pentane [1]: nil
TGA transition ending (completed) temperature [2]: 199 °C
TGA transition midpoint [2]: 192 °C
TGA yield for the transition [2]: 52.1 % (w/w)

Ag—(Se^tBu)3Ga^nBu [Example 25]
TGA transition ending (completed) temperature [2]: about 210 °C
TGA yield at 400° C. [2]: 47.7 % (w/w)
TGA yield for the transition [2]: 53.9 % (w/w)

Cu—(S^tBu)3In^tBu [Example 4]
Solubility: THF [1]: ss
Solubility: benzene [1]: ss heat
Solubility: diethyl ether [1]: nil
Solubility: pentane [1]: nil
Solubility: toluene [1]: s heat
TGA transition ending (completed) temperature [2]: about 240 °C
TGA yield for the transition [2]: 48.1 % (w/w)

Cu—(S^tBu)3Ga^iPr [Example 12]
TGA transition ending (completed) temperature [2]: 220 °C
TGA yield for the transition [2]: 46.0 % (w/w)

Cu—(Se^tBu)3In^tBu [Example 7]
Solubility: THF [1]: ss
Solubility: benzene [1]: ss heat
Solubility: diethyl ether [1]: nil
Solubility: pentane [1]: nil
Solubility: toluene [1]: heat
TGA transition ending (completed) temperature [2]: about 192 °C
TGA yield for the transition [2]: 53.1 % (w/w)

Ag—(Se^tBu)3In^nBu [Example 24]
TGA transition ending (completed) temperature [2]: about 205 °C
TGA yield at 400° C. [2]: 52.5 % (w/w)
TGA yield for the transition [2]: 54.6 % (w/w)
